Measured values from US8865698B2, “Method of treatment using substituted pyrazolo[1,5-a]pyrimidine compounds” (Array BioPharma Inc., priority 2008, dated 2014).

Target: histidine-tagged recombinant human TrkA, cytoplasmic domain (Homo sapiens (Human), UniProt P04629)
Assay: TrkA ELISA Assay
Type: biochemical
Conditions: 2.5 nM TrkA, 500 μM ATP, 25 minutes; read-out: TrkA Elisa Enzyme IC50
Procedure, shortened: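 2.5 nM enzyme with 500 μM ATP on poly(Glu,Ala,Tyr 6:3:1)-coated plates, 25 min at ambient temperature in 25 mM MOPS pH 7.5, 5 mM MgCl2, 0.005% Triton X-100. Phosphotyrosine detected by HRP-PY20 antibody, TMB, A450; IC50 from 4- or 5-parameter logistic fit.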

histidine-tagged recombinant human TrkA, cytoplasmic domain, sequence (P04629 440-796): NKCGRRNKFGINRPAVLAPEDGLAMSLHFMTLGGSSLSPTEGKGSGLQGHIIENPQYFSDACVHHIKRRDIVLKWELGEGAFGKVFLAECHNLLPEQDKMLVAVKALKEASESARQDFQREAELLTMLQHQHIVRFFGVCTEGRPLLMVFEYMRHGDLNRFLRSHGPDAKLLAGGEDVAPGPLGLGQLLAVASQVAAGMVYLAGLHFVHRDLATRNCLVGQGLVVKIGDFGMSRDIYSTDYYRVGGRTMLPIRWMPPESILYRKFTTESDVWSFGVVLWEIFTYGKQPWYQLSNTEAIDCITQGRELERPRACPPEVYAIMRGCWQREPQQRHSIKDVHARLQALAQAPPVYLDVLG

Row | SMILES | IC50 [nM]
1 | O=C(Nc1cnn2ccc(N3CCC[C@@H]3c3cc(F)ccc3F)nc12)C1CC(O)C1 (stereo partly drawn) [Example 96, (R)—N-(5-(2-(2,5-difluorophenyl)pyrrolidin-1-yl)pyrazolo[1,5-a]pyrimidin-3-yl)-3-hydroxycyclobutanecarboxamide] | 27.4
2 | CN(C)C(=O)C(=O)Nc1cnn2ccc(N3CCC[C@@H]3c3cc(F)ccc3F)nc12 [Example 97, (R)—N^1-(5-(2-(2,5-difluorophenyl)pyrrolidin-1-yl)pyrazolo[1,5-a]pyrimidin-3-yl)-N^2,N^2-dimethyloxalamide] | 47.5
3 | CNC(=O)C(=O)Nc1cnn2ccc(N3CCC[C@@H]3c3cc(F)ccc3F)nc12 [Example 98, (R)—N^1-(5-(2-(2,5-difluorophenyl)pyrrolidin-1-yl)pyrazolo[1,5-a]pyrimidin-3-yl)-N^2-methyloxalamide] | 7.65
4 | NC(=O)C(=O)Nc1cnn2ccc(N3CCC[C@@H]3c3cc(F)ccc3F)nc12 [Example 99, (R)—N^1-(5-(2-(2,5-difluorophenyl)pyrrolidin-1-yl)pyrazolo[1,5-a]pyrimidin-3-yl)oxalamide] | 4.65
5 | O=C(Nc1cnn2ccc(N3CCC[C@@H]3c3cc(F)ccc3F)nc12)C(=O)NC1CC1 [Example 100, (R)—N^1-cyclopropyl-N2-(5-(2-(2,5-difluorophenyl)pyrrolidin-1-yl)pyrazolo[1,5-a]pyrimidin-3-yl)oxalamide] | 15.8
6 | O=C(Nc1cnn2ccc(N3CCC[C@@H]3c3cc(F)ccc3F)nc12)C(=O)N1CC(O)C1 [Example 101, (R)—N-(5-(2-(2,5-difluorophenyl)pyrrolidin-1-yl)pyrazolo[1,5-a]pyrimidin-3-yl)-2-(3-hydroxyazetidin-1-yl)-2-oxo acetamide] | 10.1
7 | O=C(Nc1cnn2ccc(N3CCC[C@@H]3c3cc(F)ccc3F)nc12)C(=O)N1CC[C@H](O)C1 [Example 102, N-(5-((R)-2-(2,5-difluorophenyl)pyrrolidin-1-yl)pyrazolo[1,5-a]pyrimidin-3-yl)-2-((S)-3-hydroxypyrrolidin-1-yl)-2-oxoacetamide] | 12.8
8 | O=C(Nc1cnn2ccc(N3CCC[C@@H]3c3cc(F)ccc3F)nc12)C(=O)N1CCOCC1 [Example 103, (R)—N-(5-(2-(2,5-difluorophenyl)pyrrolidin-1-yl)pyrazolo[1,5-a]pyrimidin-3-yl)-2-morpholino-2-oxoacetamide] | 82.4
9 | COC(=O)C(=O)Nc1cnn2ccc(N3CCC[C@@H]3c3cc(F)ccc3F)nc12 [Example 104, (R)-methyl 2-(5-(2-(2,5-difluorophenyl)pyrrolidin-1-yl)pyrazolo[1,5-a]pyrimidin-3-ylamino)-2-oxoacetate] | 7.65
10 | O=C(O)C(=O)Nc1cnn2ccc(N3CCC[C@@H]3c3cc(F)ccc3F)nc12 [Example 105, (R)-2-(5-(2-(2,5-difluorophenyl)pyrrolidin-1-yl)pyrazolo[1,5-a]pyrimidin-3-ylamino)-2-oxoacetic acid] | 4.7
